# Reference: patent US20250034116A1, “1,4-DIHETEROCYCLIC SUBSTITUTED AROMATIC RING OR AROMATIC HETEROCYCLIC COMPOUND AND USE THEREOF” (BeBetter Med Inc., priority 2022, published 2025)
# Columns and labels:
# [1] = test system: CYP enzymes in rat liver microsomes (RLM); experiment: Inhibition of 20-HETE production in rat liver microsomes (RLM); assay type: biochemical
# Description: (§1) Experimental principle: The inhibitory activity of 20-HETE production is evaluated by testing the inhibitory effects of the compound on human liver microsomes (HLM), rat liver microsomes (RLM), mouse liver microsomes (MLM), or […] CYP4 subtype enzymes (CYP4F2). This assay employs HLM, RLM, or MLM along with recombinant CYP4F2 (rCYP4F2) and recombinant CYP4A11 (rCYP4A11), which are […] CYP4 subtype enzymes, to detect the effects of the test compound at different concentrations on the metabolic rate of enzyme-specific substrates, to determine the inhibitory effects of the test compound on CYP enzymes in HLM, RLM, or MLM.
# (§2) Experimental methods: Dissolve the test compound in DMSO, and subsequently dilute it with an acetonitrile and DMSO mixture (3:1). Add 2 μl of varying concentrations of the test compound and 100 μl of potassium phosphate buffer containing either liver microsomes or recombinant enzymes to a 96-well plate. After mixing well, transfer 30 μl to another well (in duplicate), add 15 μl of 400 μM substrate solution, and mix well again. Preheat at 37° C. for 10 minutes, and then add 15 μl of 6 mM NADPH and incubate at 37° C. for 25 minutes. After 25 minutes, add 160 μl of acetonitrile solution (containing 0.1 μg/ml internal standard) to stop the reaction. Mix well, centrifuge at 3500 g for 15 minutes, and then analyze the supernatant using LC-MS/MS.
# (§3) Plot the compound concentration on the x-axis and the inhibition rate on the y-axis to draw the curve. Use GraphPad Prism 5 software to fit the curve and calculate the IC50. The formula is Y=Bottom+(Top−Bottom)/(1+10^((Log IC50−X)×HillSlope)). X represents the logarithmic concentration of the inhibitor, and Y represents the relative enzyme activity at a given inhibitor concentration (relative to the condition without the inhibitor).
# (§4) Calculate the inhibition percentages at concentrations of 1000 nM, 500 nM, or 100 nM as well as the half-maximal inhibitory concentration (IC50) of the test compound from the above experiment.
# [2] = test system: CYP enzymes in human liver microsomes (HLM); experiment: Inhibition of 20-HETE production in human liver microsomes (HLM); assay type: biochemical
# Description: as §1, §2, §3, §4
RLM (% inh @ 500 nM) [1] [%],HLM (% inh @ 500 nM) [2] [%],Compound,further results
62.98,86.12,"O=C1CCCN1CC1CCN(c2ccc(-c3cc[nH]n3)c(F)c2F)CC1 [Compound 77, 1-((1-(2,3-difluoro-4-(1H-pyrazol-3-yl)phenyl)piperidin-4-yl)methyl)pyrrolidin-2-one]",
68.22,74.67,"O=C1CCCCC1C(=O)N1CCC(c2ccc(-c3cn[nH]c3)c(F)c2F)CC1 (stereo not drawn) [Compound 109, 2-(4-(2,3-difluoro-4-(1H-pyrazol-4-yl)phenyl)piperidine-1-carbonyl)cyclohexane-1-one]",
40.73,80.70,"O=C1CCCN1CC1CCN(c2ccc(-c3cc[nH]n3)cc2F)CC1 [Compound 76, 1-((1-(2-fluoro-4-(1H-pyrazol-3-yl)phenyl)piperidin-4-yl)methyl)pyrrolidin-2-one]",
,64.15,"O=C1CCCN1Cc1ccc2c(c1)CN(c1ccc(-c3cn[nH]c3)cc1)C2 [Compound 126, 1-(2-(4-(1H-pyrazol-4-yl)phenyl)isoindolin-5-ylmethyl)pyrrolidin-2-one]",
68.94,78.05,"O=C(N1CCCCC1)N1CCN(c2ccc(-c3cn[nH]c3)c(F)c2F)CC1 [Compound 88, (4-(2,3-difluoro-4-(1H-pyrazol-4-yl)phenyl)piperazin-1-yl)(piperidin-1-yl) methanone]",
−4.72,58.98,"N#Cc1cc(-c2cn[nH]c2)ccc1N1CCC(CN2CCCC2=O)CC1 [Compound 13, 2-(4-((2-oxopyrrolidin-1-yl)methyl)piperidin-1-yl)-5-(1H-pyrazol-4-yl)benzonitrile]",
34.82,94.93,"O=C1CCCN1CC1C2CN(c3ccc(-c4cn[nH]c4)cc3)CC12 (stereo not drawn) [Compound 125, 1-((3-(4-(1H-pyrazol-4-yl)phenyl)-3-azabicyclo[3.1.0]hexan-6-yl)methyl)pyrrolidin-2-one]",
55.76,94.11,"O=C(NC1CCCC1)N1CCN(c2ccc(-c3cn[nH]c3)c(F)c2F)CC1 [Compound 89, N-cyclopentyl-4-(2,3-difluoro-4-(1H-pyrazol-4-yl)phenyl)piperazine-1-carboxamide]",
,30.17,"O=C(C1CCN(c2ccc(-c3cn[nH]c3)cc2)CC1)N1CCNCC1 [Compound 51, (1-(4-(1H-pyrazol-4-yl)phenyl)piperidin-4-yl)(piperazin-1-yl) methanone]",
29.56,65.78,"O=C1CCCN1C1CCN(c2ccc(-c3cn[nH]c3)cc2)CC1 [Compound 73, 1-(1-(4-(1H-pyrazol-4-yl)phenyl)piperidin-4-yl) pyrrolidin-2-one]",
,,"O=C(N1CCN(c2ccc(-c3cn[nH]c3)cc2F)CC1)N1CC2CCCC2C1 (stereo not drawn) [Compound 133, (4-(2-fluoro-4-(1H-pyrazol-4-yl)phenyl)piperazin-1-yl)(hexahydrocyclopenta[c]pyrrol-2 (1H)-yl) methanone]",HLM (% inh @ 100 nM) [2]: 87.90%
,,"O=C(C1CCN(c2ccc(-c3cn[nH]c3)cc2)CC1)N1Cc2cccnc2C1 [Compound 157, (1-(4-(1H-pyrazol-4-yl)phenyl)piperidin-4-yl)(5,7-dihydro-6H-pyrrolo[3,4-b]pyridin-6-yl) methanone]",IC50 [2]: 17.6 nM
,41.22,"NC(=O)c1cc(-c2cn[nH]c2)ccc1N1CCC(CN2CCCC2=O)CC1 [Compound 16, 2-(4-((2-oxopyrrolidin-1-yl)methyl)piperidin-1-yl)-5-(1H-pyrazol-4-yl)benzamide]",
73.19,78.18,"C[C@@H]1CN(C(=O)N2CCCC2)CCN1c1ccc(-c2cn[nH]c2)c(F)c1F [Compound 104, (R)-(4-(2,3-difluoro-4-(1H-pyrazol-4-yl)phenyl)-3-methylpiperazin-1-yl)(pyrrolidin-1-yl) methanone]",
71.58,70.73,"CCCCCC1CCC(C(=O)N2CCC(c3ccc(-c4cn[nH]c4)c(F)c3F)CC2)CC1 (stereo not drawn) [Compound 112, (4-(2,3-difluoro-4-(1H-pyrazol-4-yl)phenyl)piperidin-1-yl)((1s,4r)-4-pentylcyclohexyl) methanone]",
12.62,64.22,"O=Cc1cc(-c2cn[nH]c2)ccc1N1CCC(CN2CCCC2=O)CC1 [Compound 15, 2-(4-((2-oxopyrrolidin-1-yl)methyl)piperidin-1-yl)-5-(1H-pyrazol-4-yl)benzaldehyde]",
,,"O=C(C1CCN(c2ccc(-c3cn[nH]c3)cc2F)CC1)N1Cc2ccccc2C1 [Compound 156, (1-(2-fluoro-4-(1H-pyrazol-4-yl)phenyl)piperidin-4-yl)(isoindolin-2-yl) methanone]",IC50 [2]: 26.2 nM
25.96,,"O=C1c2ccccc2CCN1CC1CCN(c2ccc(-c3cn[nH]c3)cc2)CC1 [Compound 42, 2-((1-(4-(1H-pyrazol-4-yl)phenyl)piperidin-4-yl)methyl)-3,4-dihydroisoquinolin-1(2H)-one]",IC50 [1]: 605 nM; IC50 [2]: 32.8 nM
14.48,57.59,"O=C(C1CCN(c2ccc(-c3cn[nH]c3)cc2)CC1)N1CCOCC1 [Compound 50, (1-(4-(1H-pyrazol-4-yl)phenyl)piperidin-4-yl)(morpholinyl) methanone]",
,,"O=C(N1CCC(c2ccc(-c3cn[nH]c3)cc2)CC1)C1(O)CCCCC1 [Compound 139, (4-(4-(1H-pyrazol-4-yl)phenyl)piperidin-1-yl)(1-hydroxycyclohexyl) methanone]",HLM (% inh @ 100 nM) [2]: 88.13%
,−24.84,"O=C1CCCN1CC1CCN(c2ncc(-c3cn[nH]c3)cn2)CC1 [Compound 23, 1-((1-(5-(1H-pyrazol-4-yl)pyrimidin-2-yl)piperidin-4-yl)methyl)pyrrolidine-2-one]",
,,"CC(C)(O)CC(=O)N1CCC(c2ccc(-c3cn[nH]c3)cc2F)CC1 [Compound 151, 1-(4-(2-fluoro-4-(1H-pyrazol-4-yl)phenyl)piperidin-1-yl)-3-hydroxy-3-methylbutan-1-one]",HLM (% inh @ 100 nM) [2]: 82.28%
,,"O=C(C1CCCC(O)C1)N1CCC(c2ccc(-c3cn[nH]c3)cc2F)CC1 (stereo not drawn) [Compound 148, (4-(2-fluoro-4-(1H-pyrazol-4-yl)phenyl)piperidin-1-yl)(3-hydroxycyclohexyl) methanone]",HLM (% inh @ 100 nM) [2]: 85.60%
,36.16,"CN(C)c1cc(-c2cn[nH]c2)ccc1N1CCC(CN2CCCC2=O)CC1 [Compound 20, 1-((1-(2-(dimethylamino)-4-(1H-pyrazol-4-yl)phenyl)piperidin-4-yl)methyl)pyrrolidin-2-one]",
,40.01,"O=C1CCCN1CC1CCN(c2ccc(-c3cn[nH]c3)cn2)CC1 [Compound 21, 1-((1-(5-(1H-pyrazol-4-yl)pyridin-2-yl)piperidin-4-yl)methyl)pyrrolidin-2-one]",
,,"N#Cc1ccc2c(c1)CN(C(=O)C1CCN(c3ccc(-c4cn[nH]c4)cc3)CC1)C2 [Compound 158, 2-(1-(4-(1H-pyrazol-4-yl)phenyl)piperidine-4-carbonyl) isoindoline-5-carbonitrile]",IC50 [2]: 11.7 nM
,,"O=C(C1CCCCC1O)N1CCC(c2ccc(-c3cn[nH]c3)cc2F)CC1 (single isomer, unassigned) [Compound 149a, (4-(2-fluoro-4-(1H-pyrazol-4-yl)phenyl)piperidin-1-yl)(2-hydroxycyclohexyl) methanone]",HLM (% inh @ 100 nM) [2]: 84.74%
,,"O=C1C2CCCC2CN1CC1CCN(c2ccc(-c3cn[nH]c3)cc2F)CC1 (stereo not drawn) [Compound 160, 2-((1-(2-fluoro-4-(1H-pyrazol-4-yl)phenyl)piperidin-4-yl)methyl) hexahydrocyclopenta[c]pyrrol-1(2H)-one]",IC50 [2]: 23.2 nM
,41.24,"COc1cc(-c2cn[nH]c2)ccc1N1CCC(CN2CCCC2=O)CC1 [Compound 14, 1-((1-(2-methoxy-4-(1H-pyrazol-4-yl)phenyl)piperidin-4-yl)methyl)pyrrolidin-2-one]",
,,"O=S(=O)(c1ccc(F)cc1)N1CCN(c2ccc(-c3cn[nH]c3)cc2F)CC1 [Compound 134, 1-(2-fluoro-4-(1H-pyrazol-4-yl)phenyl)-4-((4-fluorophenyl)sulfonyl)piperazine]",IC50 [2]: 21.9 nM

Compound,RLM (% inh @ 500 nM) [1] [%],HLM (% inh @ 500 nM) [2] [%],further results
"O=C1N(CC2CCN(c3ccc(-c4cn[nH]c4)cc3)CC2)CCC12CCCCC2 [Compound 31, 2-((1-(4-(1H-pyrazol-4-yl)phenyl)piperidin-4-yl)methyl)-2-azaspiro[4.5]decan-1-one]",14.73,68.02,
"O=C(C1CCN(c2ccc(-c3cn[nH]c3)cc2)CC1)N1CC2(CCC2)C1 [Compound 67, (1-(4-(1H-pyrazol-4-yl)phenyl)piperidin-4-yl)(2-azaspiro[3.3]heptane-2-yl) methanone]",30.84,55.57,
